Read-outs that look alike come from different tables or passages of the source.
Legend:
[1] = molecular target: T1, PDE2 (Bos taurus, UniProt P14099); experiment: Radioenzymatic phosphodiesterase assay: PDE2 inhibition; type: biochemical, bovine; conditions: read-out: PDE2 percentage of inhibition at 10 μM
T1 sequence (P14099 1-921): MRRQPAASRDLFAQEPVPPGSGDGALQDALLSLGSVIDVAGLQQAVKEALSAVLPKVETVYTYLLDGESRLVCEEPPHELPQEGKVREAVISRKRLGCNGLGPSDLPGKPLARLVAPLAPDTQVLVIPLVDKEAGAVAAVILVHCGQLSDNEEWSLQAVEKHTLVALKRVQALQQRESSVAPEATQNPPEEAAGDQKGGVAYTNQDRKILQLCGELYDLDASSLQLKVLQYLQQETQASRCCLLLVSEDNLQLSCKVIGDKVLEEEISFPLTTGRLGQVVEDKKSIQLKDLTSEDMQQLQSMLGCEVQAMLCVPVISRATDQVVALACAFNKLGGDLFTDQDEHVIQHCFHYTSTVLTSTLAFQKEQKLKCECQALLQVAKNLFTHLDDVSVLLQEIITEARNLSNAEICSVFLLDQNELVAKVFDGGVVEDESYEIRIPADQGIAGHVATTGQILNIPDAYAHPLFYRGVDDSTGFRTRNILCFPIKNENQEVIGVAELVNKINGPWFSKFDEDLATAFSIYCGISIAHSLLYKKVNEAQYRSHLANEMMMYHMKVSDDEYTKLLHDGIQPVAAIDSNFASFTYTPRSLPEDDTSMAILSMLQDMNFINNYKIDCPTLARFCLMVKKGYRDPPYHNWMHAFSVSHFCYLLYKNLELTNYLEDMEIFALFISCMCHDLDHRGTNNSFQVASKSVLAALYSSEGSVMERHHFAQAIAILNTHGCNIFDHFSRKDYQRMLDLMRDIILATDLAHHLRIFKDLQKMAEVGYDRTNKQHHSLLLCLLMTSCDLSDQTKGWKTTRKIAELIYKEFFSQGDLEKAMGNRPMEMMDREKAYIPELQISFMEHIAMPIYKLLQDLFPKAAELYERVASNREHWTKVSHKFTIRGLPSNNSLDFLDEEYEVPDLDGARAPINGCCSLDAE
Procedure: Nucleoside radioactivity was determined by liquid scintillation.

[2] = test system: PDE4; experiment: Radioenzymatic phosphodiesterase assay: PDE4 inhibition (selectivity); conditions: Table 2; 10 μM test compound; PDE4 of vascular smooth muscle
Procedure: (§1) 3 g of tunica media from bovine aorta was cut in small piece and homogenized in a glass potter with 7 volumes/weight of buffer A containing protease inhibitors cocktails (20 mM Tris-HCl, 0.25 M saccharose, 2 mM magnesium acetate, 1 mM dithiothreitol, 5 mM EGTA, 2000 U/ml aprotinine, 10 mg/l leupeptine, 10 mg/l of soybean chemotrypsin inhibitor). The homogenate was centrifuged at 875000 g for 1 h and the surpernant was then transferred in DEAE-Sephacel (15×1.6 cm). The column was equilibrated beforehand with a buffer B (buffer A without saccharose, d'EGTA and protease inhibitors). […] Fractions were aliquoted and stored at −80° C. until further use.
(§2) The monophosphated adenosine or guanosine released by the hydrolysis of tritiated cyclic nucleotides was transformed into tritiated adenosine or guanosine by excess of nucleotidase. The obtained nucleoside was separated from nucleotides by anion exchange chromatography. Nucleoside radioactivity was determined by liquid scintillation.
(§3) The phosphodiesterase inhibitory activity of compounds was evaluated on other isoforms of phosphodiesterases such as PDE3, and PDE4 of vascular smooth muscle.

[3] = test system: PDE3; experiment: Radioenzymatic phosphodiesterase assay: PDE3 inhibition (selectivity); conditions: Table 2; 10 μM test compound; PDE3 of vascular smooth muscle
Procedure: as §1, §2, §3

Row | Structure (SMILES) | inhibition at 10 µM ([1]; Table 1, 10 μM test compound) | inhibition at 10 µM [1] | other results
1 | COc1ccccc1-c1cc2c(cc1OC)N(C)C(=O)CN=C2c1cccc(C(N)=O)c1 [Example 21, 3-[8-Methoxy-7-(2-methoxy-phenyl)-1-methyl-2-oxo-2,3-dihydro-1H-benzo[e][1,4]diazepin-5-yl]-benzamide] | 98% | – | PDE4 percentage of inhibition at 10 μM [2]: 18%; PDE3 percentage of inhibition at 10 μM [3]: 9%
2 | COc1ccc(-c2cc3c(cc2OC)N(C)C(=O)CN=C3c2cccc(C(N)=O)c2)cc1 [Example 22, 3-[8-Methoxy-7-(4-methoxy-phenyl)-1-methyl-2-oxo-2,3-dihydro-1H-benzo[e][1,4]diazepin-5-yl]-benzamide] | 99% | – | PDE4 percentage of inhibition at 10 μM [2]: 50%; PDE3 percentage of inhibition at 10 μM [3]: 22%
3 | COc1cc2c(cc1-c1ccccc1)C(c1ccccc1Br)=NCC(=O)N2 [Example 102, 5-(2-Bromo-phenyl)-8-methoxy-7-phenyl-1,3-dihydro-benzo[e][1,4]diazepin-2-one] | 48% | – | –
4 | COCCCc1cccc(C2=NCC(=O)N(C)c3cc(OC)c(-c4ccccc4)cc32)c1 [Example 103, 8-Methoxy-5-[3-(3-methoxy-propyl)-phenyl]-1-methyl-7-phenyl-1,3-dihydro-benzo[e][1,4]diazepin-2-one] | 96% | – | –
5 | COc1cc2c(cc1-c1ccccc1)C(c1ccccc1Br)=NCC(=O)N2C [Example 104, 5-(2-Bromo-phenyl)-8-methoxy-1-methyl-7-phenyl-1,3-dihydro-benzo[e][1,4]diazepin-2-one] | 71% | – | –
6 | CCCCC#Cc1ccc(C2=NCC(=O)N(C)c3cc(OC)c(-c4ccccc4)cc32)cc1 [Example 105, 5-(4-Hex-1-ynyl-phenyl)-8-methoxy-1-methyl-7-phenyl-1,3-dihydro-benzo[e][1,4]diazepin-2-one] | – | 42% | –
7 | COCCCc1ccc(C2=NCC(=O)N(C)c3cc(OC)c(-c4ccccc4)cc32)cc1 [Example 106, 8-Methoxy-5-[4-(3-methoxy-propyl)-phenyl]-1-methyl-7-phenyl-1,3-dihydro-benzo[e][1,4]diazepin-2-one] | – | 47% | –
8 | COc1cc2c(cc1-c1ccccc1)C(c1ccc(CCCNC(=O)OC(C)(C)C)cc1)=NCC(=O)N2C [Example 107, {3-[4-(8-Methoxy-1-methyl-2-oxo-7-phenyl-2,3-dihydro-1H-benzo[e][1,4]diazepin-5-yl)-phenyl]-propyl}-carbamic acid tert-butyl ester] | – | 92% | –
9 | COc1ccc(C2=NCC(=O)N(C)c3cc(OC)c(-c4ccccc4OC)cc32)cc1 [Example 108, 8-Methoxy-5-(4-methoxy-phenyl)-7-(2-methoxy-phenyl)-1-methyl-1,3-dihydro-benzo[e][1,4]diazepin-2-one] | – | 99% | –
10 | COc1ccc(C2=NCC(=O)N(C)c3cc(OC)c(-c4cc(OC)ccc4OC)cc32)cc1 [Example 110, 7-(2,5-Dimethoxy-phenyl)-8-methoxy-5-(4-methoxy-phenyl)-1-methyl-1,3-dihydro-benzo[e][1,4]diazepin-2-one] | – | 99% | –
11 | COc1ccc(C2=NCC(=O)N(C)c3cc(OC)c(-c4c(F)cccc4OC)cc32)cc1 [Example 111, 7-(2-Fluoro-6-methoxy-phenyl)-8-methoxy-5-(4-methoxy-phenyl)-1-methyl-1,3-dihydro-benzo[e][1,4]diazepin-2-one] | – | 99% | –
12 | COc1ccc(C2=NCC(=O)N(C)c3cc(OC)c(-c4ccccc4Oc4ccccc4)cc32)cc1 [Example 112, 8-Methoxy-5-(4-methoxy-phenyl)-1-methyl-7-(2-phenoxy-phenyl)-1,3-dihydro-benzo[e][1,4]diazepin-2-one] | – | 99% | –
13 | COc1cc2c(cc1-c1ccccc1)C(c1ccc(Br)cc1)=NCC(=O)N2C [Example 113, 5-(4-Bromo-phenyl)-8-methoxy-1-methyl-7-phenyl-1,3-dihydro-benzo[e][1,4]diazepin-2-one] | 94% | – | –
14 | COc1cc2c(cc1-c1ccccc1)C(c1ccc(Br)cc1)=NCC(=O)N2 [Example 114, 5-(4-Bromo-phenyl)-8-methoxy-7-phenyl-1,3-dihydro-benzo[e][1,4]diazepin-2-one] | 72% | – | –
